We go through two molecules from patent publication US20050287225A1, “Metal cluster nano-compounds for treating tumor diseases” (priority 2002, published 2005).

Experiment [1] has as its system MOR/P lung cancer cells (cisplatin-sensitive). As to the kind of experiment: In-vitro cell toxicity, MTT colorimetry assay (Example 2). It counts as cell-based, human. As to conditions: comparison value, incubation not stated. The procedure:
(§1) The in-vitro cytotoxicity properties of the gold-55 particles (Au55) prepared in example 1. C) were carried out on HeLa cancer cells and on MOR/P and MOR/CPR lung cancer cells. MOR/P cells are sensitive to cisplatin, while MOR/CPR cells are resistant to cisplatin.
(§2) The HeLa cells were grown on a DMEM medium at 37° C. in a 5% CO2 atmosphere. The medium had been supplemented with 10% strength FCS serum and antibiotics. Daughter cultures were generated twice weekly. The MOR/P and MOR/CPR cells were grown on an RPMI 1640 medium at 37° C. in a 5% CO2 atmosphere. Said medium had likewise been supplemented with 10% strength FCS serum and antibiotics. Here too, daughter cultures were generated twice weekly.
(§3) The in-vitro cytotoxicity of the Au55 particles was determined in the following manner using 96-well microtiter plates and an MTT colorimetry assay (CellTiter 96® Aqueous One Solution Cell Proliferation Assay, Promega):
(§4) Cultures of each cell line were applied at a concentration of 1—10^5 cells/ml to the microtiter plates and grown in the above-described media at 37° C. in a 5% CO2 atmosphere for 72 hours. […]
(§5) Absorption at 490 nm was measured for each well of each microtiter plate by using a 96-well microtiter plate reader. The absorption measured at 490 nm was plotted as a function of the Au55 particle concentration and the IC50 value was determined.
(Tetrazolium assays rely on reduction of a dye to a coloured formazan, in cell work by metabolically active cells.)

Experiment [2] has as its system MOR/CPR lung cancer cells (cisplatin-resistant). The description is as above. It is filed as cell-based, human. As to conditions: comparison value, incubation not stated. The procedure: as §1, §2, §3, §4, §5
The next experiment relates to MC3 normal bone cells. Nature of the experiment: In-vitro cytotoxicity MTT assay (Example 4). It is filed as cell-based. As to conditions: 72 h, read-out: IC50 cisplatin 72 h. How it is done: (§6) The in-vitro cytotoxicity was studied by means of the MTT assay (Promega), a colorimetric method in which a tetrazolium-based compound is reduced by living cells to give formazan. The amount of formazan formed is directly proportional to the number of living cells in the culture. Each cell line was incubated in microliter dishes for 48 hours before adding the medicaments. Cisplatin or Au55 was added, followed by an incubation for 72 or 24 hours. Subsequently, the MTT assays were carried out following Promega's information.
(§7) Table 2 below depicts the inhibitory concentrations of cisplatin and [Au55] incubations with various cell lines over 72 and 24 hours, respectively. The IC50 data were calculated from the graphs obtained from the in vitro cytotoxicity assays MTT. Each experiment was repeated three times independently from one another by way of determination in triplicate.

A further experiment concerns BLM metastatic melanoma. As to the kind of experiment: In-vitro cytotoxicity MTT assay (Example 4). It is filed as cell-based, human. The conditions noted are these: 72 h, read-out: IC50 cisplatin 72 h. The procedure: as §6, §7
The subject of experiment [3] is HeLa cervical cancer cells. As to the kind of experiment: In-vitro cytotoxicity MTT assay (Example 4). It is filed as cell-based, human. As to conditions: 72 h, read-out: IC50 cisplatin 72 h. How it is done: as §6, §7
Experiment [4] in a line: In-vitro cytotoxicity MTT assay (Example 4). It counts as cell-based, human. The conditions noted are these: Hek, 72 h; read-out: IC50 cisplatin 72 h. The procedure:
as §6, §7

Another experiment has as its system MV3 metastatic melanoma. As to the kind of experiment: In-vitro cytotoxicity MTT assay (Example 4). It is filed as cell-based, human. As to conditions: 72 h, read-out: IC50 cisplatin 72 h. The procedure: as §6, §7
The subject of experiment [5] is MOR/P lung cancer cells, cisplatin-sensitive. As to the kind of experiment: In-vitro cytotoxicity MTT assay (Example 4). It is filed as cell-based, human. As to conditions: 72 h. How it is done: as §6, §7
Another experiment has as its system U205 osteosarcoma. Nature of the experiment: In-vitro cytotoxicity MTT assay (Example 4). The conditions noted are these: 72 h, read-out: IC50 cisplatin 72 h. It is filed as cell-based, human. The procedure:
as §6, §7

Experiment [6] has as its system MOR/CPR lung cancer cells, cisplatin-resistant. Nature of the experiment: In-vitro cytotoxicity MTT assay (Example 4). It counts as cell-based, human. The procedure:
as §6
Diagram 4 relates to in-vitro cytotoxicity assays on cisplatin-resistant MOR/CPR lung tumor cells, incubated with different concentrations of Au55(Ph2PC6H4SO3H)12Cl6 [Au55] for 24 hours. Each point represents 3 experiments carried out independently of one another and repeated in each case three times.
Diagramm 5 relates to in-vitro cytotoxicity assays on cisplatin-resistant MOR/CPR lung tumor cells incubated with different concentrations of free ligand, Ph2PC6H4SO3H, for 24 hours. Each point represents 3 independent experiments repeated in each case in triplicate.
Table 2 below depicts the inhibitory concentrations of cisplatin and [Au55] incubations with various cell lines over 72 and 24 hours, respectively. The IC50 data were calculated from the graphs obtained from the in vitro cytotoxicity assays MTT. […]

As for `N.N.[Cl][Pt][Cl]` [cisplatin, cis-diaminodichloroplatinum(II)], the IC50 came out at 3.3 ± 0.3 µM in [1]; 7.1 ± 1.2 µM in experiment [2]; 26.1 ± 1.27 µM in the experiment with MC3 normal bone cells; 54.7 ± 7.6 µM in the experiment on BLM metastatic melanoma; 7.93 ± 0.95 µM in experiment [3]; 20.1 ± 6 µM in experiment [4]. Also, the IC50 is > 50 µM in the experiment on MV3 metastatic melanoma, 3.3 ± 0.3 µM in [5], 11.2 ± 2.02 µM in the experiment on U205 osteosarcoma and 7.1 ± 1.2 µM in [6] (72 h).
`O=S(=O)(O)c1cccc(P(c2ccccc2)c2ccccc2)c1` [ligand molecules, Ph2PC6H4SO3H]: the “Influence of the ligand molecules themselves on the life span of the cells” value in experiment [6] (different concentrations of free ligand, 24 hours) is “cannot be detected”.

What is called IC50 is the concentration that inhibits the measured activity by half.
